Source: patent US7183320B2, “Benzoylsulfonamides and sulfonylbenzamidines for use as antitumour agents” (Eli Lilly and Company, priority 2002, dated 2007)

How the values were obtained:
Format in all cases: in vivo
[1] = tested on: HUMAN BREAST WSU-Br-1; assay: Upstaged human breast WSU-Br-1 xenograft (Table VIII); conditions: Balb/C SCID female mice
From the text: (§1) Conventional Murine Tumor and Human Tumor Xenouraft Assays
(§2) Inhibition of tumors transplanted into mice is an accepted procedure for studying the efficacy of antitumor agents (Corbett, et al., In vivo Methods for Screening and Preclinical Testing; Use of rodent solid tumors for drug discovery., In: Anticancer Drug Development Guide: Preclinical Screening, Clinical Trials, and Approval, B. Teicher (ed), Humana Press Inc., Totowa, N.J., Chapter 5, pages 75–99 (1997); (Corbett, et al., Int., J. Parmacog., 33, Supplement, 102–122 (1995)). Murine tumors or human xenographs were implanted essentially as described by Corbett in In vivo Methods for Screening and Preclimical Testing; Use of rodent solid tumors for drug discovery. Briefly, the murine tumor or human xenograph was implanted subcutaneously using either 12-gauge trocar implants or counted number of cells. The location for the trocar insertion is midway between the axillary and inguinal region along the side of the mouse. The trocar is slipped approximately ¾ of an inch subcutaneously up toward the axilla before discharging the tumor fragment, and pinching the skin as the trocar is removed., Alternatively, human tumor cells prepared from a […] of donor tumors (5×10^6 cells) were implanted subcutaneously in a hind-leg of a male or female nude mouse (Charles River). Either a test compound in vehicle or vehicle alone was administered by intravenous bolus injection (iv), intraperitoneal injection (ip), or oral gavage (po). Each treatment group, as well as a group of untreated control animals, consisted of five animals per group in each experiment. Subcutaneous tumor response was monitored by tumor volume measurement performed twice each week over the course of the experiment (60–120 days). Body weights were taken as a general measure of toxicity. The subcutaneous tumor data were analyzed by determining the median tumor weight for each treatment group over the course of the experiment and calculating the tumor growth delay as the difference in days for the treatment versus the control tumors to reach a volume of either 500 or 1000 mm^3.
(§3) The compound of Example 110 was tested against a variety of murine and human tumors substantially as described supra. The parameters measured in each experiment are summarized in the following paragraphs. • Tumor Weight(mg)=(a×b^2)/2 where a=tumor length (mm) and b=tumor width (mm). • Tumor Growth Delay=T−C where T is the median time (days) required for the treatment group tumors to reach a predetermined size, and C is the median time (days) for the control group tumors to reach the same size. Tumor-free survivors are excluded from this calculation, and are tabulated separately (Tumor Free).
(§4) [formula] • where Tumor Growth Delay is as previously defined and Td is tumor volume doubling time (days), estimated from the best fit straight line from a log-linear growth plot of the control group of tumors in exponential growth (100–800 mg range) • % T/C mass—The treatment and control groups are measured when the control group tumors reach approximately 700 to 1200 mg in size (median group). The median tumor weight of each group is determined (including zeros). The T/C value in percent is an indication of antitumor effectiveness. A T/C≦42% is considered significant antitumor activity. A T/C<10% is considered to indicate highly significant antitumor activity. • Body Weight Loss Nadir—A body weight loss nadir (mean of group) of greater than 20% or drug deaths greater than 20% are considered to indicate an excessively toxic dosage in single course trials. • Activity Rating—the Activity Rating is derived from the Log Kill according to the following table: […]

[2] = tested on: HUMAN PROSTATE LNCaP; assay: Early stage human prostate LNCaP xenograft (Table VII); conditions: total dose 840 mg/kg: 140 mg/kg/injection IV on days 3, 5, 7, 9, 10, and 11, Balb/C SCID female mice
From the text: as §1, §2, §3, §4

[3] = tested on: MURINE COLON CARCINOMA-26; assay: Early stage murine colon carcinoma-26 (Table X); conditions: Balb/C female mice
From the text: as §1
Briefly, the murine tumor or human xenograph was implanted subcutaneously using either 12-gauge trocar implants or counted number of cells. The location for the trocar insertion is midway between the axillary and inguinal region along the side of the mouse. The trocar is slipped approximately ¾ of an inch subcutaneously up toward the axilla before discharging the tumor fragment, and pinching the skin as the trocar is removed., Alternatively, human tumor cells prepared from a […] of donor tumors (5×10^6 cells) were implanted subcutaneously in a hind-leg of a male or female nude mouse (Charles River). Either a test compound in vehicle or vehicle alone was administered by intravenous bolus injection (iv), intraperitoneal injection (ip), or oral gavage (po). Each treatment group, as well as a group of untreated control animals, consisted of five animals per group in each experiment. […] Body weights were taken as a general measure of toxicity. The subcutaneous tumor data were analyzed by determining the median tumor weight for each treatment group over the course of the experiment and calculating the tumor growth delay as the difference in days for the treatment versus the control tumors to reach a volume of either 500 or 1000 mm^3.
as §3, with “The” for “The compound of Example 110 was tested against a variety of murine and human tumors substantially as described supra. The”
The median tumor weight of each group is determined (including zeros). The T/C value in percent is an indication of antitumor effectiveness.

[4] = total dose 500 mg/kg: 100 mg/kg/injection IV on days 11–13 and 19–20
[5] = total dose 725 mg/kg: 145 mg/kg/injection IV on days 11–13 and 19–20
[6] = total dose 1305 mg/kg: 145 mg/kg/injection IV on days 1, 3, 5, 7, 9, 13, 15, 17, and 19
[7] = total dose 1600 mg/kg: 100 mg/kg/injection IV BID on days 1, 3, 5, 7, 13, 15, 17, and 21
[8] = total dose 1740 mg/kg: 145 mg/kg/injection IV on days 1, 2, 3, 7, 8, 13, 14, 16, 18, and 20–22

Q: Which “% BODY WT LOSS AT NADIR” value [1, 4] does the source give for `O=C(NS(=O)(=O)c1ccccc1)c1ccc(Cl)cc1Cl` [Example 110, N-[2,4-dichlorobenzoyl]phenylsulfonamide] here?
A: The value was “+14%”.

Q: And the “% T/C MASS” value [1, 4]?
A: The value was 0%.

Q: What about the “ACTIVITY RATING” value [1, 4] of the same compound?
A: Its value is “++++ (HIGHLY ACTIVE >2.8)”.

Q: What about the “DRUG DEATHS” value [1, 4] of the same compound?
A: The value was 0/5.

Q: What about the “GROWTH DELAY” value [1, 4] of the same compound?
A: Its value is 39 days.

Q: And the “LOG KILL” value [1, 4]?
A: The value was 2.0.

Q: What about the “TUMOR FREE AT DAY 179” value [1, 4] of the same compound?
A: The value was 2/5.

Q: And the “% BODY WT LOSS AT NADIR” value [1, 5]?
A: Its value is “+3.9%”.

Q: And the “% T/C MASS” value [1, 5]?
A: The value was 0%.

Q: What about the “ACTIVITY RATING” value [1, 5] of the same compound?
A: The value was “++++ (HIGHLY ACTIVE >2.8)”.

Q: And the “DRUG DEATHS” value [1, 5]?
A: Its value is 0/5.

Q: What about the “GROWTH DELAY” value [1, 5] of the same compound?
A: The value was 57 days.

Q: And the “LOG KILL” value [1, 5]?
A: Its value is 2.9.

Q: What about the “TUMOR FREE AT DAY 179” value [1, 5] of the same compound?
A: The value was 2/5.

Q: And the “% BODY WT LOSS AT NADIR” value [2]?
A: Its value is “+5.6%”.

Q: And the “% T/C MASS” value [2]?
A: Its value is 0%.

Q: What about the “ACTIVITY RATING” value [2] of the same compound?
A: Its value is “++++ (HIGHLY ACTIVE >2.8)”.

Q: And the “DRUG DEATHS” value [2]?
A: Its value is 0/5.

Q: And the “TUMOR FREE AT DAY 185” value [2]?
A: The value was 4/5.

Q: And the “GROWTH DELAY (DAYS)” value ([2]; one mouse)?
A: The value was 60^b DAYS.

Q: What about the “LOG KILL” value ([2]; one mouse) of the same compound?
A: Its value is 7.2^b.

Q: And the “% BODY WT LOSS AT NADIR” value [3, 6]?
A: The value was “+15%”.

Q: What about the “% T/C MASS” value [3, 6] of the same compound?
A: Its value is 28%.

Q: And the “ACTIVITY RATING” value [3, 6]?
A: Its value is “+ (0.7–1.2)”.

Q: What about the “DRUG DEATHS” value [3, 6] of the same compound?
A: The value was 0/5.

Q: What about the “GROWTH DELAY” value [3, 6] of the same compound?
A: The value was 6 days.

Q: What about the “LOG KILL” value [3, 6] of the same compound?
A: Its value is 0.9.

Q: What about the “TUMOR FREE AT DAY 31” value [3, 6] of the same compound?
A: The value was 0/5.

Q: And the “% BODY WT LOSS AT NADIR” value [3, 7]?
A: Its value is “+15%”.

Q: What about the “% T/C MASS” value [3, 7] of the same compound?
A: Its value is 34%.

Q: And the “ACTIVITY RATING” value [3, 7]?
A: Its value is “+++ (2.0–2.8)”.

Q: What about the “DRUG DEATHS” value [3, 7] of the same compound?
A: Its value is 0/5.

Q: What about the “GROWTH DELAY” value [3, 7] of the same compound?
A: Its value is 15 days.

Q: And the “LOG KILL” value [3, 7]?
A: The value was 2.2.

Q: What about the “TUMOR FREE AT DAY 31” value [3, 7] of the same compound?
A: Its value is 0/5.

Q: And the “% BODY WT LOSS AT NADIR” value [3, 8]?
A: The value was “+17%”.

Q: What about the “% T/C MASS” value [3, 8] of the same compound?
A: Its value is 34%.

Q: And the “ACTIVITY RATING” value [3, 8]?
A: The value was “+++ (2.0–2.8)”.

Q: And the “DRUG DEATHS” value [3, 8]?
A: The value was 0/5.

Q: What about the “GROWTH DELAY” value [3, 8] of the same compound?
A: Its value is 14 days.

Q: What about the “LOG KILL” value [3, 8] of the same compound?
A: Its value is 2.1.

Q: And the “TUMOR FREE AT DAY 31” value [3, 8]?
A: Its value is 0/5.
